{"source": "patent US20140275143A1", "about": "“Compositions Comprising An Opioid And An Additional Active Pharmaceutical Ingredient For Rapid Onset And Extended Duration Of Analgesia That May Be Administered Without Regard To Food” (MALLINCKRODT LLC, priority 2013, published 2014)", "key": {"[1]": {"experiment": "Dose proportionality and linearity of oxycodone (Example 34)", "assay_type": "in vivo, human", "conditions": "CR OC/APAP; for AUC0-inf vs dose, Slope / AUC0-inf vs dose, y-Intercept / Cmax vs dose, Slope / Cmax vs dose, y-Intercept: linearity; for Dose-normalized AUC0-inf vs dose, Slope / Dose-normalized AUC0-inf vs dose, y-Intercept / Dose-normalized Cmax vs dose, Slope / Dose-normalized Cmax vs dose, y-Intercept: proportionality", "protocol": "Data were pooled from randomized, crossover, single- and multiple-dose studies conducted in healthy adults (aged 18-55 years) to evaluate the dose proportionality and dose linearity of the oxycodone component of CR OC/APAP when administered as 1, 2, or 4 tablets (7.5 mg, 15 mg, or 30 mg oxycodone, respectively). […] (See selected example from Chart No. 1)\nThe following treatments were administered under fasted conditions: • Single-dose studies: 1, 2, or 4 tablets of CR OC/APAP (7.5 mg, 15 mg, or 30 mg oxycodone, respectively) (see selected example from Chart No. 1) administered orally once • Multiple-dose studies: 1 or 2 tablets of CR OC/APAP (7.5 mg or 15 mg oxycodone, respectively) (see selected example from Chart No. 1) administered every 12 hours for 4.5 days (9 doses)\n(§1) One single-dose study (highest dosage) enrolled healthy recreational drug users; all other studies enrolled healthy subjects with specific exclusions for drug use.\n(§2) Area under the plasma oxycodone concentration-time curve from time 0 extrapolated to infinity (AUC0-inf) and maximum plasma concentration (Cmax)) were compared across dose levels of CR OC/APAP. […] For a linear PK system, the measures of exposure, such as maximal blood concentration (Cmax) or area under the curve from 0 to infinity (AUC) on the y-axis, are linearly (i.e., by a straight line) related to dose on the x-axis. Dose proportionality for CR OC/APAP was assessed; dose proportionality occurs when increases in the administered dose are accompanied by proportional increases in a measure of exposure, such as AUC or Cmax.\n(§3) AUC0-inf and Cmax were divided by dose (dose-normalized) for dose proportionality analyses. Dose normalization (calculated as plasma concentration divided by dose) was utilized to compare concentration across different dosage strengths. Dose linearity and proportionality were determined using linear regression of non-transformed data, including 95% confidence intervals (CIs) and 95% prediction limits. Slope, y-intercept, and R^2 were calculated. The slope and the intercept together define the linear relationship between dose and AUC, or dose and Cmax. The coefficient of determination, R^2, represents the proportion of variability in a data set that is accounted for by a statistical model."}, "[2]": {"experiment": "Dose proportionality and linearity of acetaminophen (Example 33)", "assay_type": "in vivo, human", "conditions": "CR OC/APAP; for AUC0-inf vs dose, Slope / AUC0-inf vs dose, y-Intercept / Cmax vs dose, Slope / Cmax vs dose, y-Intercept: linearity; for Dose-normalized AUC0-inf vs dose, Slope / Dose-normalized AUC0-inf vs dose, y-Intercept / Dose-normalized Cmax vs dose, Slope / Dose-normalized Cmax vs dose, y-Intercept: proportionality", "description": "(See selected example from Chart No. 1)\nas §1\nas §2, with “APAP” for “oxycodone”\nas §3"}}}
{"smiles": "COc1ccc2c3c1O[C@H]1C(=O)CC[C@@]4(O)[C@@H](C2)N(C)CC[C@]314", "note": "[Oxycodone]", "values": [{"measurement": "AUC0-inf vs dose, Slope", "setting": "[1]; Multiple-Dose", "result": 14.151}, {"measurement": "AUC0-inf vs dose, y-Intercept", "setting": "[1]; Multiple-Dose", "result": "−3.774"}, {"measurement": "Cmax vs dose, Slope", "setting": "[1]; Multiple-Dose", "result": 1.640}, {"measurement": "Cmax vs dose, y-Intercept", "setting": "[1]; Multiple-Dose", "result": 0.362}, {"measurement": "AUC0-inf vs dose, Slope", "setting": "[1]; Single-Dose", "result": 11.093}, {"measurement": "AUC0-inf vs dose, y-Intercept", "setting": "[1]; Single-Dose", "result": 7.202}, {"measurement": "Cmax vs dose, Slope", "setting": "[1]; Single-Dose", "result": 1.050}, {"measurement": "Cmax vs dose, y-Intercept", "setting": "[1]; Single-Dose", "result": "−0.417"}, {"measurement": "Dose-normalized AUC0-inf vs dose, Slope", "setting": "[1]; Multiple-Dose", "result": 0.033}, {"measurement": "Dose-normalized AUC0-inf vs dose, y-Intercept", "setting": "[1]; Multiple-Dose", "result": 13.397}, {"measurement": "Dose-normalized Cmax vs dose, Slope", "setting": "[1]; Multiple-Dose", "result": "−0.003"}, {"measurement": "Dose-normalized Cmax vs dose, y-Intercept", "setting": "[1]; Multiple-Dose", "result": 1.712}, {"measurement": "Dose-normalized AUC0-inf vs dose, Slope", "setting": "[1]; Single-Dose", "result": "−0.024"}, {"measurement": "Dose-normalized AUC0-inf vs dose, y-Intercept", "setting": "[1]; Single-Dose", "result": 12.015}, {"measurement": "Dose-normalized Cmax vs dose, Slope", "setting": "[1]; Single-Dose", "result": "−0.001"}, {"measurement": "Dose-normalized Cmax vs dose, y-Intercept", "setting": "[1]; Single-Dose", "result": 1.041}]}
{"smiles": "CC(=O)Nc1ccc(O)cc1", "note": "[acetaminophen]", "values": [{"measurement": "AUC0-inf vs dose, Slope", "setting": "[2]; Multiple-Dose", "result": 40.177}, {"measurement": "AUC0-inf vs dose, y-Intercept", "setting": "[2]; Multiple-Dose", "result": 2249.134}, {"measurement": "Cmax vs dose, Slope", "setting": "[2]; Multiple-Dose", "result": 7.079}, {"measurement": "Cmax vs dose, y-Intercept", "setting": "[2]; Multiple-Dose", "result": 816.140}, {"measurement": "AUC0-inf vs dose, Slope", "setting": "[2]; Single-Dose", "result": 41.021}, {"measurement": "AUC0-inf vs dose, y-Intercept", "setting": "[2]; Single-Dose", "result": 4024.292}, {"measurement": "Cmax vs dose, Slope", "setting": "[2]; Single-Dose", "result": 6.336}, {"measurement": "Cmax vs dose, y-Intercept", "setting": "[2]; Single-Dose", "result": 467.019}, {"measurement": "Dose-normalized AUC0-inf vs dose, Slope", "setting": "[2]; Multiple-Dose", "result": "−0.011"}, {"measurement": "Dose-normalized AUC0-inf vs dose, y-Intercept", "setting": "[2]; Multiple-Dose", "result": 50.557}, {"measurement": "Dose-normalized Cmax vs dose, Slope", "setting": "[2]; Multiple-Dose", "result": "−0.004"}, {"measurement": "Dose-normalized Cmax vs dose, y-Intercept", "setting": "[2]; Multiple-Dose", "result": 10.845}, {"measurement": "Dose-normalized AUC0-inf vs dose, Slope", "setting": "[2]; Single-Dose", "result": "−0.007"}, {"measurement": "Dose-normalized AUC0-inf vs dose, y-Intercept", "setting": "[2]; Single-Dose", "result": 52.943}, {"measurement": "Dose-normalized Cmax vs dose, Slope", "setting": "[2]; Single-Dose", "result": "−0.001"}, {"measurement": "Dose-normalized Cmax vs dose, y-Intercept", "setting": "[2]; Single-Dose", "result": 7.877}]}
